From US20150291593A1, “NOVEL HETEROARYL AND HETEROCYCLE COMPOUNDS, COMPOSITIONS AND METHODS” (HUTCHISON MEDIPHARMA LIMITED, priority 2012, published 2015)

Legend:
Format in all cases: biochemical
p110β/p85α = target: T1, p110β/p85α (Homo sapiens, UniProt P42338); experiment: Transcreener KINASE Assay, kinase inhibition of p110β/p85α; settings: for IC50: read-out: PI3Kβ IC50
T1 construct: purchased Millipore
Procedure: (§1) PI3K kinases including p110α/p85α, p110δ/p85α and p110γ are purchased from Invitrogen, and p110β/p85α is from Millipore.
(§2) Primary screening data and IC50 values are measured using Transcreener™ KINASE Assay (Bellbrook, Catalog #3003-10K). […] It is a universal, homogenous, high throughput screening (HTS) technology using a far-red, competitive fluorescence polarization immunoassay based on the detection of ADP to monitor the activity of enzymes that catalyze group transfer reactions. Briefly, the Transcreener KINASE Assay is designed as a simple two-part, endpoint assay.
(§3) In the first step, the 25 ul kinase reaction is performed by preparing a reaction mixture containing 5 ul test compound (2% DMSO final concentration), 10 ul kinase, buffer (50 mM HEPES, 100 mM NaCl, 1 mM EGTA, 0.03% CHAPS, 3 mM MgCl2, and freshly supplemented 1 mM DTT), and 10 ul 30 uM PIP2/10 uM ATP. The plate is sealed and incubated for 80 min at room temperature. Next, 25 ul ADP detection mix is added per well. The plate is sealed again and incubated for 60 min at room temperature, and then measure fluorescence polarization by Tecan Infinite F500 Reader.
(§4) Data is analyzed and IC50s are generated using the add-in software for Microsoft Excel, Xlfit™ (version 2.0). IH %=(ADP amount under 2% DMSO-ADP amount under test compound)/ADP amount under 2% DMSO.

p110γ = target: T2, p110γ (Homo sapiens, UniProt P48736); experiment: Transcreener KINASE Assay, kinase inhibition of p110γ; settings: for IC50: read-out: PI3Kγ IC50
T2 construct: purchased Invitrogen
T2 sequence (P48736 whole entry, species assumed): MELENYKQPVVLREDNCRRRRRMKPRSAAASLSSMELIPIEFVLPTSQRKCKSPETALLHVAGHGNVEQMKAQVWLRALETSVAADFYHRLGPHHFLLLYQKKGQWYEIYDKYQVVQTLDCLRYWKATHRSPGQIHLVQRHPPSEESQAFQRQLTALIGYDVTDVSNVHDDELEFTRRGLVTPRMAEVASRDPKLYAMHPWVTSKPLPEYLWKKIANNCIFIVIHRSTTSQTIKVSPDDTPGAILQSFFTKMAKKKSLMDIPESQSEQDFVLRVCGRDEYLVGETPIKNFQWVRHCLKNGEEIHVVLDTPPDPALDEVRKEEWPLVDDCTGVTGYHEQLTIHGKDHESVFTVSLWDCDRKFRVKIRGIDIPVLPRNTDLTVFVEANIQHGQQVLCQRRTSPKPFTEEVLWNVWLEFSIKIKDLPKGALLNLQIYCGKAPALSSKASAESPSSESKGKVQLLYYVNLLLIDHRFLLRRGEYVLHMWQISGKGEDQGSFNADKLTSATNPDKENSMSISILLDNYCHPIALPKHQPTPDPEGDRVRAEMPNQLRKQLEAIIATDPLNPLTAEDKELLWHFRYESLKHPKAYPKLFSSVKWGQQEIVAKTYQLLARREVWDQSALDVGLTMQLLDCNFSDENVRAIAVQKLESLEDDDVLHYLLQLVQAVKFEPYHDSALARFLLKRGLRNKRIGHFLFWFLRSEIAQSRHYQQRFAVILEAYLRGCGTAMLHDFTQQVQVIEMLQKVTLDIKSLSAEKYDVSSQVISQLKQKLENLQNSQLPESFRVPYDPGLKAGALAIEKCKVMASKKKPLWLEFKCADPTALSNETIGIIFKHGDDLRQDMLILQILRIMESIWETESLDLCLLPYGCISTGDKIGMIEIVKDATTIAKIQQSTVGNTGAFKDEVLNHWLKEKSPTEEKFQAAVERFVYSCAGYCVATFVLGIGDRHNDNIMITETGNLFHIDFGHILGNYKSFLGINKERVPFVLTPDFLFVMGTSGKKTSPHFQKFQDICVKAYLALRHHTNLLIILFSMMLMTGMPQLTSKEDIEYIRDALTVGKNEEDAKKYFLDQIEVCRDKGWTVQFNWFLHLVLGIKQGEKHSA
Procedure: PI3K kinases including p110α/p85α, p110δ/p85α and p110γ are purchased from Invitrogen, and p110β/p85α is from Millipore. Primary screening data and IC50 values are measured using Transcreener™ KINASE Assay (Bellbrook, Catalog #3003-10K). […] It is a universal, homogenous, high throughput screening (HTS) technology using a far-red, competitive fluorescence polarization immunoassay based on the detection of ADP to monitor the activity of enzymes that catalyze group transfer reactions. Briefly, the Transcreener KINASE Assay is designed as a simple two-part, endpoint assay. […] The plate is sealed and incubated for 80 min at room temperature. Next, 25 ul ADP detection mix is added per well. The plate is sealed again and incubated for 60 min at room temperature, and then measure fluorescence polarization by Tecan Infinite F500 Reader. Data is analyzed and IC50s are generated using the add-in software for Microsoft Excel, Xlfit™ (version 2.0).

p110δ/p85α = target: T3, p110δ/p85α (Homo sapiens, UniProt O00329); experiment: Transcreener KINASE Assay, kinase inhibition of p110δ/p85α; settings: for IC50: read-out: PI3Kδ IC50
T3 construct: purchased Invitrogen
T3 sequence (O00329 whole entry, species assumed): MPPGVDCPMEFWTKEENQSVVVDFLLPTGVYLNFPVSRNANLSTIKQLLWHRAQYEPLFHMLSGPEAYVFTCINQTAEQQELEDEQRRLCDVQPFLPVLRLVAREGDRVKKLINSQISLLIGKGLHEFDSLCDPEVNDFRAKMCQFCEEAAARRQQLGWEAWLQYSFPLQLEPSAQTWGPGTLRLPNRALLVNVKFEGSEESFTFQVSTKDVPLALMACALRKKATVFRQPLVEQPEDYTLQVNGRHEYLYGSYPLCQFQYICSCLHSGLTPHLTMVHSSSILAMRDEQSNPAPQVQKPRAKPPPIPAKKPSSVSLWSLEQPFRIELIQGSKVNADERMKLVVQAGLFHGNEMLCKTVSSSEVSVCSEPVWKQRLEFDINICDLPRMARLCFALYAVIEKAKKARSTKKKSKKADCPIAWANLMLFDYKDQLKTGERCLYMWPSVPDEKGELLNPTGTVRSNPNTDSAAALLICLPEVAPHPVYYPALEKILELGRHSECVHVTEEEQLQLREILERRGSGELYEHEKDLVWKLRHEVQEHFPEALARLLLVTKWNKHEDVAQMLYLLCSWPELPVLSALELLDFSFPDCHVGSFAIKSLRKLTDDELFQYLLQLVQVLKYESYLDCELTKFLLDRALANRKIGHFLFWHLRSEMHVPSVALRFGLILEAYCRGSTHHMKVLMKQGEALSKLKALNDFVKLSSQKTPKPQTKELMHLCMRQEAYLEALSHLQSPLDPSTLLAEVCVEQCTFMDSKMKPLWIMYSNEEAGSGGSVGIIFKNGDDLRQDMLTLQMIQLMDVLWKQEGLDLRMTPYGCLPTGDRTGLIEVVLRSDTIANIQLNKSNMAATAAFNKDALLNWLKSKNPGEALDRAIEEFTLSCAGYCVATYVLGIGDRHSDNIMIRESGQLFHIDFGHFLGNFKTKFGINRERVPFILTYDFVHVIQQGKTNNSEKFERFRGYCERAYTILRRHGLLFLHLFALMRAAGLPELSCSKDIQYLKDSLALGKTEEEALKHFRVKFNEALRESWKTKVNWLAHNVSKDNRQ
T3 sequence (P27986 whole entry partner, species assumed): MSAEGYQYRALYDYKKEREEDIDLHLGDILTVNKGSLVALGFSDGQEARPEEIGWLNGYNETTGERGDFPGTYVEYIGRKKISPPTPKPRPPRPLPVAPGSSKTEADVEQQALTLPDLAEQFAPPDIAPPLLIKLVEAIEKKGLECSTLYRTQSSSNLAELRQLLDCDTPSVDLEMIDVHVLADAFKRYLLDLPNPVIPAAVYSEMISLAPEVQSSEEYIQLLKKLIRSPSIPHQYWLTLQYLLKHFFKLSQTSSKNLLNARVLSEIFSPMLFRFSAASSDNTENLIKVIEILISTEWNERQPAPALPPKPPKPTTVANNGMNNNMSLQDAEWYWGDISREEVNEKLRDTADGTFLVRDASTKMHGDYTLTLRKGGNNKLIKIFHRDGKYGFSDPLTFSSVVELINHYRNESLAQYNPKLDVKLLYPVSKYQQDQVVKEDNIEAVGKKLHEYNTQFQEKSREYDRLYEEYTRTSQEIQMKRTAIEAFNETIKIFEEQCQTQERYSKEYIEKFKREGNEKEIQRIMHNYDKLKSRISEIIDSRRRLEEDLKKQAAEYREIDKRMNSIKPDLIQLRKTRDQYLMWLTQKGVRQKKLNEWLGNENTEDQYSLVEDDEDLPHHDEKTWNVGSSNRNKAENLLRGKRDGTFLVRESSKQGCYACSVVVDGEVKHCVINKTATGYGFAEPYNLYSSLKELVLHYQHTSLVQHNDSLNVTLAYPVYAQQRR
Procedure: as §1, §2, §3, §4

T1 sequence (P42338 whole entry, species assumed): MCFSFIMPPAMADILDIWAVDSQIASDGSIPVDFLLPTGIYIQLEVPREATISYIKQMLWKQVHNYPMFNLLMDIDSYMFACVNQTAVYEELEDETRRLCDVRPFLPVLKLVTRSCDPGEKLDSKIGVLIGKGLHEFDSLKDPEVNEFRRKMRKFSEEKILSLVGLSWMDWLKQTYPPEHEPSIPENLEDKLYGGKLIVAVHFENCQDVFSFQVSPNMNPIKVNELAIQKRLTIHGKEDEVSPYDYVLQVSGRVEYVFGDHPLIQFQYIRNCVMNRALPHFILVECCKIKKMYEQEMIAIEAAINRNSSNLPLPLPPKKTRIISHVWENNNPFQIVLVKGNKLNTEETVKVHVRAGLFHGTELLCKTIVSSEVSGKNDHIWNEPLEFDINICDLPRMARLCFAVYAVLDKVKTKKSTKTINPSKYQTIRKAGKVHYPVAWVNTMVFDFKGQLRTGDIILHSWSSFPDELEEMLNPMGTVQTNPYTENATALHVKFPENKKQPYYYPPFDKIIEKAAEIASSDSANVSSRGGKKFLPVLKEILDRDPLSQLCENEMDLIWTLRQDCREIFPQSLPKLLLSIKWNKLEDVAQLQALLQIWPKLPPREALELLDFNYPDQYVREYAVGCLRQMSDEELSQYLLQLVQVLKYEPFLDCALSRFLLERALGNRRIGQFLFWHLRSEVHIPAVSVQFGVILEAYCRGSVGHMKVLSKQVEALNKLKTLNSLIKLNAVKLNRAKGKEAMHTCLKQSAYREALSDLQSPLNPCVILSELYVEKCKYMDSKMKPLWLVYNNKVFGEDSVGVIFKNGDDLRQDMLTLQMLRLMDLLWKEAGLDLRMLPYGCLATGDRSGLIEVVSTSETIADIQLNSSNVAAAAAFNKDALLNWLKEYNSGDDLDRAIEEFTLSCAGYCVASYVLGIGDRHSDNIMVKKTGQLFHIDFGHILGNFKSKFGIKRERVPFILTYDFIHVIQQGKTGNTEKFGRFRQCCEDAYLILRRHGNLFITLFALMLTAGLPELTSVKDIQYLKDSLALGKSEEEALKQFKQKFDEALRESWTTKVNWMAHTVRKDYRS
T1 sequence (P27986 whole entry partner, species assumed): as the sequence (P27986 whole entry partner, species assumed) above

| Structure (SMILES) | IC50 (p110γ) [nM] | IC50 (p110δ/p85α) [nM] | other results |
| --- | --- | --- | --- |
| CC(Nc1ncnc2[nH]cnc12)c1cn2ccc(Cl)c2c(=O)n1-c1ccc(F)cc1 (stereo not shown) [Compound 78] | 18 |  | IC50 (p110β/p85α): 26 nM |
| CC(Nc1ncnc(N)c1C#N)c1cn2ccc(Cl)c2c(=O)n1-c1ccc(F)cc1 (stereo not shown) [Compound 79] |  |  | IC50 (p110β/p85α): 6 nM; PI3Kδ IH % @ 1 uM (p110δ/p85α): 99.0% |
| CC(Nc1ncnc2[nH]cnc12)c1cn2ccc(Cl)c2c(=O)n1-c1cc(F)cc(F)c1 (stereo not shown) [Compound 80] | 46 | 7 | PI3Kδ IH % @ 1 uM (p110δ/p85α): >100% |
| CC(Nc1ncnc(N)c1C#N)c1cn2ccc(Cl)c2c(=O)n1-c1cc(F)cc(F)c1 (stereo not shown) [Compound 81] | 70 | 6 | PI3Kβ IH % @ 1 uM (p110β/p85α): 79.0%; PI3Kδ IH % @ 1 uM (p110δ/p85α): >100% |
| O=c1c2cccn2nc([C@@H]2CCCN2c2ncnc3[nH]cc(-c4cn[nH]c4)c23)n1-c1ccccc1 [Compound 99] | 6 | 3 | PI3Kβ IH % @ 1 uM (p110β/p85α): 78.8%; IC50 (p110β/p85α): 147 nM; PI3Kδ IH % @ 1 uM (p110δ/p85α): >100%; PI3Kγ IH % @ 1 uM (p110γ): 94.2% |
| Nc1ncc(-c2c[nH]c3ncnc(N4CC[C@H]4c4nn5ccc(Cl)c5c(=O)n4-c4ccccc4)c23)cn1 [Compound 104] |  | < 0.5 |  |
| N#Cc1c[nH]c2ncnc(N3CCC[C@H]3c3nn4c(F)ccc4c(=O)[nH]3)c12 [Compound 106, (S)-4-(2-(7-fluoro-4-oxo-3,4-dihydropyrrolo[1,2-f][1,2,4]triazin-2-yl)pyrrolidin-1-yl)-7H-pyrrolo[2,3-d]pyrimidine-5-carbonitrile] |  | 232 | PI3Kβ IH % @ 1 uM (p110β/p85α): 61.9%; PI3Kδ IH % @ 1 uM (p110δ/p85α): 86.8%; PI3Kγ IH % @ 1 uM (p110γ): 41.1% |
| COc1ccc(-c2c(N)ncnc2N2CC[C@H]2c2nn3ccc(Cl)c3c(=O)n2-c2ccccc2)cn1 [Compound 108, (S)-2-(1-(6-amino-5-(6-methoxypyridin-3-yl)pyrimidin-4-yl)azetidin-2-yl)-5-chloro-3-phenylpyrrolo[1,2-f][1,2,4]triazin-4(3H)-one] | 199 | 97 |  |
| O=c1c2c(Cl)ccn2nc([C@@H]2CCCN2c2ncnc3[nH]ccc23)n1-c1ccccc1 [Compound 145] |  |  | PI3Kγ IH % @ 1 uM (p110γ): 100% |
| O=c1c2c(Cl)ccn2nc([C@@H]2COCCN2c2ncnc3[nH]cnc23)n1-c1ccccc1 [Compound 153] | 165 | 11 |  |
| N#Cc1c[nH]c2ncnc(N3C[C@@H](F)C[C@H]3c3nn4ccc(Cl)c4c(=O)n3Cc3ccccn3)c12 [Compound 158] |  |  | PI3Kγ IH % @ 1 uM (p110γ): 100% |
| COc1ncc(-c2c[nH]c3ncnc(N4CC[C@H]4c4nn5ccc(F)c5c(=O)n4-c4ccccc4)c23)cn1 [Compound 181] |  | < 0.46 |  |
| COc1ccc(-c2c[nH]c3ncnc(N4CC[C@H]4c4nn5ccc(F)c5c(=O)n4-c4ccccc4)c23)cn1 [Compound 182] |  | < 0.46 |  |
| Nc1ccc(-c2c[nH]c3ncnc(N4CC[C@H]4c4nn5ccc(F)c5c(=O)n4-c4ccccc4)c23)cn1 [Compound 183] |  | < 0.46 |  |
| C[S+]([O-])c1c[nH]c2ncnc(N3CCC[C@H]3c3nn4ccc(Cl)c4c(=O)n3-c3ccccc3)c12 (stereo partly shown) [Compound 187] | 33 |  | IC50 (p110β/p85α): 88 nM |
| O=c1c2c(Cl)ccn2nc([C@@H]2C[C@H](O)CN2c2ncnc3[nH]cnc23)n1-c1ccccc1 [Compound 262] |  | < 1 |  |
| Nc1ncc([N+](=O)[O-])c(N2CC[C@H]2c2nn3ccc(Cl)c3c(=O)n2-c2ccccc2)n1 [Compound 282] | 25 | 40 |  |
| CO/N=C(\C)c1c[nH]c2ncnc(N3CCC[C@H]3c3nn4ccc(Cl)c4c(=O)n3-c3ccccc3)c12 [Compound 308] | 37 | 21 |  |
| CC(O)c1cnc(N)nc1N1CC[C@H]1c1nn2ccc(Cl)c2c(=O)n1-c1ccccc1 (stereo partly drawn) [Compound 357, 2-((2S)-1-(2-amino-5-(1-hydroxyethyl)pyrimidin-4-yl)azetidin-2-yl)-5-chloro-3-phenylpyrrolo[2,1-f][1,2,4]triazin-4(3H)-one] |  | > 300 |  |
| C[S+]([O-])c1cnc(N)nc1N1CC[C@H]1c1nn2ccc(Cl)c2c(=O)n1-c1ccccc1 (stereo partly shown) [Compound 399] |  |  | PI3Kβ IH % @ 1 uM (p110β/p85α): 3.5% |
